Values of other authors as cited in the CATMoS acute toxicity set (Mansouri et al. 2021).
Values joined by “and” are separate entries in the source; they are usually repeats but may differ in a detail not shown here. Equal values may be shown once.

Test: rat acute oral toxicity
Conditions: in vivo

In order of falling LD50:
1. OCC1OC(N2CCN(C3OC(CO)C(O)C(O)C3O)CC2)C(O)C(O)C1O (stereo not given)  30000 mg/kg
2. Nc1cc2c(S(=O)(=O)O)cccc2c(S(=O)(=O)O)c1N  29000 mg/kg
3. O=C(NCCc1ccc(O)cc1)c1cccnc1  8500 mg/kg
4. CS(=O)C(C)(C)C(=O)O (stereo not given)  7500 mg/kg
5. CC(C)CS  7170 mg/kg
6. c1ccc2sc(SN(C3CCCCC3)C3CCCCC3)nc2c1  6420 mg/kg
7. O=C(Nc1cc(Cl)ccc1Cl)c1cc(Cl)cc(-c2ccccc2)c1O  6310 mg/kg
8. O=C(Cn1ccnc1)c1ccc2c(c1)Cc1ccccc1-2  4550 mg/kg
9. Cc1c(C)c2c(c(C)c1O)CCC(C)(C(=O)O)O2 (stereo not given)  4300 mg/kg
10. O=C(NN1CCCC1)NS(=O)(=O)c1ccc(Cl)cc1  4100 mg/kg
11. CC(=O)CC(=O)Nc1ccc(Cl)cc1C  3500 mg/kg
12. CO[C@@H]1[C@@H](OC(N)=O)[C@@H](O)[C@H](Oc2ccc3c(O)c(NC(=O)c4ccc(O)c(CC=C(C)C)c4)c(=O)oc3c2C)OC1(C)C  3500 mg/kg
13. CC/C(=C(/CC)c1ccc(OP(=O)(O)O)cc1)c1ccc(OP(=O)(O)O)cc1  3000 mg/kg
14. N#CC(F)(F)C(F)(F)C(F)(F)C(F)(F)C#N  2920 mg/kg
15. Cc1ccc(S(=O)(=O)O)cc1  2570 mg/kg
16. COc1cc(C(=O)OCCCN(C)CCN(C)CCCOC(=O)c2cc(OC)c(OC)c(OC)c2)cc(OC)c1OC  2550 mg/kg
17. CC1=CCC2CC(CC3(CCC(C)C(C(C)C)O3)O2)OC(=O)C2C=C(C)C(O)C3OCC(=CC=CC(C)C1)C23O (stereo not given)  2470 mg/kg
18. CCOCN(C(=O)CO)c1c(C)cccc1CC  2400 mg/kg
19. CCCCn1c(=O)n(CCC)c(=O)c2c(NC)n(C(=O)OC)nc21  2380 mg/kg
20. CCN(CC)c1ccc(C=O)c(O)c1  2260 mg/kg
21. CC(N)CN (stereo not given)  2230 mg/kg
22. CCC(CC)C(=O)O  2200 mg/kg
23. COc1cc(C(=O)NC2CCCNC2)cc(OC)c1OC (stereo not given)  2100 mg/kg
24. CC(O)C1CCCCC1 (stereo not given)  2100 mg/kg
25. Nc1cc([N+](=O)[O-])ccc1Cl  2020 mg/kg
26. COc1cc2nc(N3CCN(C(=O)c4ccco4)CC3)nc(N)c2cc1OC  1950 mg/kg
27. CC(C)C1NC(=O)c2ccccc2O1 (stereo not given)  1850 mg/kg
28. CCC(CC)CO  1850 mg/kg
29. C[Si](C)(C)N=C=N[Si](C)(C)C  1730 mg/kg
30. CC(Cl)=CC(=O)Nc1ccc(O)cc1  1580 mg/kg
31. CN(C)CCOCCOC(=O)N1c2ccccc2Sc2ccccc21  1500 mg/kg
32. Cc1nc(N)sc1C(=O)Nc1ccccc1  1410 mg/kg
33. N=C(O)CCC/N=C(\c1ccc(Cl)cc1)c1cc(F)ccc1O  1350 mg/kg
34. Cc1ccc(N)c(C)c1  1260 mg/kg
35. C[N@+]12CCCC[C@@H]1CCC(=C(c1cccs1)c1cccs1)C2  1180 mg/kg
36. c1ccc(-c2ccc(CCOc3ncnc4ccccc34)cc2)cc1  1150 mg/kg
37. O=Cc1cccc(Br)c1  1130 mg/kg
38. CC(C)=CCN1CC[C@@]2(C)c3cc(O)ccc3C[C@@H]1[C@@H]2C (racemic)  1110 mg/kg
39. CC(=Cc1ccccc1)CC(=O)N1CCOCC1  1000 mg/kg
40. C=CCN1CC[C@]23CCCC[C@H]2[C@H]1Cc1ccc(O)cc13  949 mg/kg
41. CCOC1CCCCC1O (stereo not given)  804 mg/kg
42. CC(C(=O)O)c1cccc(Oc2ccccc2)c1 (stereo not given)  800 mg/kg
43. C=CCOC(=O)CC(SP(=S)(OC)OC)C(=O)OCC(C)SP(=S)(OC)OC (stereo not given)  762 mg/kg
44. O=CNc1ccc(Cl)cc1  750 mg/kg
45. CCN(CC)CCOc1ccccc1C(=O)CCc1ccccc1  716 mg/kg
46. CC1=[N+](C)c2ccccc2C1(C)C  707 mg/kg
47. Nc1cc(Cl)c(N)c(Cl)c1  700 mg/kg
48. CCS  682 mg/kg
49. Clc1ccc2ocnc2c1  650 mg/kg
50. Cc1cc(S(=O)(=O)c2ccccc2)ccc1NS(=O)(=O)C(F)(F)F  633 mg/kg
51. CCOc1ccc(N2C(=O)C=CC2=O)cc1  630 mg/kg
52. CCC1(CCl)COC1  570 mg/kg
53. CCCCOCCCOC(=O)CCOc1cc(Cl)c(Cl)cc1Cl  500 mg/kg
54. COC(=O)CCC[N+](C)(C)C  478 mg/kg
55. Cc1cccc2c1C(=O)C(c1c(Cl)cccc1Cl)C2=O (stereo not given)  466 mg/kg
56. CC1=CC[C@@H]2C[C@@H](C[C@]3(CC[C@H](C)[C@@H](C)O3)O2)OC(=O)[C@@H]2C=C(C)[C@@H](O)[C@H]3OCC(=CC=C[C@H](C)C1)[C@]32O  456 mg/kg
57. CN(C1CCCCC1)C1CCCCC1  446 mg/kg
58. O=[N+]([O-])c1cc(Cl)c(Cl)c(Cl)c1[N+](=O)[O-]  425 mg/kg
59. O=C(CN1CCOCC1)N/N=C/c1ccc([N+](=O)[O-])o1  420 mg/kg
60. CNc1snc2ccccc12  400 mg/kg
61. CC(C)(C)OC(=O)CCl  380 mg/kg
62. CN1CCC2(C)CC(Cc3ccc(O)cc32)C1 (stereo not given)  320 mg/kg
63. C/C=C/C=C/C=O  300 mg/kg
64. COc1c(Cl)cc(Cl)c(Cl)c1C(=O)O  300 mg/kg
65. O=C1C(Cc2ccccc2)C(=O)N(c2ccccc2)N1c1ccccc1  297 mg/kg
66. O=C(C(F)(F)Cl)C(F)(Cl)Cl  277 mg/kg
67. ClCCC[Si](Cl)(Cl)Cl  200 mg/kg
68. CN1CCC23c4c5ccc(O)c4OC2C(N=[N+]=[N-])CCC3(O)C1C5 (stereo not given)  190 mg/kg
69. C=CCOP(OCC=C)OCC=C  178 mg/kg
70. CCN(CC)C(=O)c1ccc(O)c(OC)c1  154 mg/kg
71. CCOP(=S)(OCC)SCSC(=S)N(C)C  150 mg/kg
72. CCOC(=O)Nc1ccc2c(c1)N(C(=O)CCN1CCN(CCO)CC1)c1ccccc1CC2  147 mg/kg
73. COc1ccc2c(c1)c(CC(=O)OCC(C(=O)O)c1ccccc1)c(C)n2C(=O)c1ccc(Cl)cc1 (stereo not given)  140 mg/kg
74. C#CCN1CCC2=C(C1)c1c(OC(=O)CCCN3CCCCC3)cc(C(C)C(C)CCCCC)cc1OC2(C)C (stereo not given)  130 mg/kg
75. C=C1C(=O)O[C@@H]2C[C@@H](C)[C@@H]3C=CC(=O)[C@@]3(C)[C@@H](O)[C@H]12  125 mg/kg
76. COP(=O)(OC)Sc1ccc(Cl)cc1  100 mg/kg
77. CCCN=C(NCCC)C(OCC)c1ccccc1 (stereo not given)  95 mg/kg
78. CC(C)(C)NCC(O)CSc1nc(-c2ccc(C(N)=O)s2)cs1 (stereo not given)  86 mg/kg
79. CCN(C(=O)c1cc(Cl)nc(Cl)c1)C1CC1  78 mg/kg
80. O=C(c1ccccc1)N1CCN=C1Nc1c(Cl)cccc1Cl  68.1 mg/kg
81. CC(C)NC(=N)NC(=N)Nc1ccc(Cl)cc1  58 mg/kg
82. CC(C)=CCC(CCN1CCCCC1)(C(N)=O)c1cccc2ccccc12 (stereo not given)  57 mg/kg
83. Cc1c(COC(=O)[C@@H]2[C@H](/C=C(\Cl)C(F)(F)F)C2(C)C)cccc1-c1ccccc1 (racemic)  54.5 mg/kg
84. CCOP(=S)(OC)SCN1C(=O)c2ccccc2C1=O (stereo not given)  50 mg/kg
85. CCN(CC)S(=O)(=O)c1ccc(OP(=S)(OC)OC)cc1Cl  50 mg/kg
86. FC(F)(F)c1nc2ccc(Br)cc2[nH]1  49 mg/kg
87. CNC(=O)Oc1ccc(C)c(N(C)C)c1  46 mg/kg
88. CCC(C)c1ccc(OC(=O)NC)cc1 (stereo not given)  44 mg/kg
89. CCOc1ccc([N+](=O)[O-])cc1CNCCCl  25 mg/kg
90. C1CCCNCC1  20.7 mg/kg
91. FCCOC(Cl)C(Cl)(Cl)Cl (stereo not given)  18 mg/kg
92. CNC(=O)Oc1cccc2c1OC(C)(C)C2O (stereo not given)  18 mg/kg
93. CCOP(=S)(OCC)Oc1ccc2c(C)cc(=O)oc2c1  14.7 mg/kg
94. CCOP(=S)(OCC)Oc1ccc(SC)c(C)c1  14 mg/kg
95. CON=CC1=CCCNC1  12 mg/kg
96. CCOP(=O)(OCC)SCn1nc(C)ccc1=O  6.5 mg/kg
97. CCOP(=O)(OCC)SCC(=O)NC(C)(C)C#N  3.5 mg/kg
98. COP(=O)(OC)Oc1cc(C)n(C)c(=O)c1  2.91 mg/kg

For `O=C(O)CCC(=O)c1ccc(C2CCCCC2)c(Cl)c1`, the LD50 is listed as 120 mg/kg and 300 mg/kg.
For `CCCCCCCCCCCC[N+](C)(C)Cc1ccccc1`, the LD50 is given as 400 mg/kg and 230 mg/kg.
